The results in this text go back to patent publication EP0035619B1, “Derivatives of 3-amino-(1H,3H)-2,4-quinazolin-diones” (BERRI-BALZAC Société dite:, priority 1980, dated 1981).

Common to all, as to type: in vivo
One series relates to souris. Put plainly: Sedative action: sedation index (hole-board exploration, hypothermia, mobility, agility). The source says: L'action sédative est mesurée par un indice de sédation. Cet indice de sédation tient compte du pourcentage, chez la souris, de la diminution de l'exploration de la planche à trous par rapport à des témoins, de l'hypothermie, de la mobilité, de l'agilité. Les résultats pour le composé de l'exemple 3, sont donnés au Tableau Il.
L'action sédative est mesurée par un indice de sédation. Cet indice de sédation tient compte du pourcentage, chez la souris, de la diminution de l'exploration de la planche à trous par rapport à des témoins, de l'hypothermie, de la mobilité, de l'agilité. Les résultats pour le composé de l'exemple 3 sont donnés au Tableau II.

The nature of series [1]: Potentiation of psychotropic drugs (Nembutal, Chlorpromazine, morphine) and antagonism of amphetamine. An excerpt: D'autre part, il faut noter une potentialisation par les composés de formule (I) des psychotropes : Nembutal, Chlorpromazine, morphine, et un antagoniste de l'amphétamine. A titre d'exemple, le composé de l'exemple 3 potentialise l'effet hypnotique du Nembutal de + 146 %, celui de la Chlorpromazine de + 50 % et celui de la morphine de 40 %. Par contre, il antagonise à 70 % les effets de l'amphétamine.
D'autre part, il faut noter une potentialisation par les composés de formule (I) des psychotropes : Nembutal, Chlorpromazine, morphine et un antagoniste de l'amphétamine. A titre d'exemple, le composé de l'exemple 3 potentialise l'effet hypnotique du Nembutal de + 146 %, celui de la Chlorpromazine de + 50 % et celui de la morphine de 40 %. Par contre, il antagonise à 70 % les effets de l'amphétamine.

A further series concerns souris Swiss. Nature of the series: Acute toxicity (LD50) in Swiss mice. The method, then: Les toxicités aiguës ont été déterminées sur la souris Swiss.
Par exemple, pour le composé de l'exemple 3, la DL50 par voie IP est de 250 mg et per os de 225 mg.

The next series concerns rat vigile. Nature of the series: Diuretic action in the conscious rat with i.p. isotonic sodium chloride load. The note with it: mean increase of diuresis versus mean of controls. How it is done: L'action diurétique est mesurée sur le rat vigile traité par 25 ou 50 mg/kg de substance à tester prise par voie orale ou intrapéritonéale et recevant une injection I.P. de soluté isotonique de chlorure de sodium au début de l'essai. Les rats sont groupés par trois et les expériences sont répétées en croisant les lots de rats.
La diurèse est exprimée par le pourcentage de l'augmentation moyenne de la diurèse par rapport à la moyenne des témoins.
L'action diurétique est mesurée sur le rat vigile traité par 25 ou 50 mg/kg de substance à tester prise par voie orale ou intrapéritonéale et recevant une injection IP de soluté isotonique de chlorure de sodium au début de l'essai. Les rats sont groupés par trois et les expériences sont répétées en croisant les lots de rats.

As to `CN(C)n1c(=O)c2ccccc2n(C)c1=O` [Exemple 3, diméthylamino-3 méthyl-1 (1 H, 3H) quinazolinedione-2,4], the “Indice de sédation” value in the series on souris (50 mg/kg per os) turned out to be 76; in the series with souris (100 mg/kg per os) it was 164; in the series on souris (100 mg/kg voie I.P.), 236. Moreover, the “Indice de sédation chimique” value with souris (100 mg/kg per os) turned out to be 179. Moreover, in series [1] (with Chlorpromazine), the “potentialise l'effet de la Chlorpromazine” value is 50%. Besides, in series [1] (with Nembutal), the “potentialise l'effet hypnotique du Nembutal” value is 146%. Further, the “antagonise les effets de l'amphétamine” value in series [1] (with amphétamine) worked out at 70%. Further, the “potentialise l'effet de la morphine” value in series [1] (with morphine) stood at 40%. In addition, the DL50 in the series on souris Swiss (par voie IP) worked out at 250 mg; in the series on souris Swiss (per os), 225 mg. Further, the Diurèse worked out at 60% in the series on rat vigile (25 mg/kg par voie IP), 77% with rat vigile (25 mg/kg par voie orale), 200% in the series with rat vigile (50 mg/kg par voie IP) and 200% in the series on rat vigile (50 mg/kg par voie orale).
